Assay results: paper PMC8605905 (Oxidative Medicine and Cellular Longevity, 2021)

Experiments:
[1] = target: T1, Aβ and ΔK280 tauRD aggregates (Homo sapiens, UniProt P05067+P10636, DEL597-597); experiment: TEM examination of Aβ and tau aggregates; conditions: 10 μM
T1 construct: To investigate Aβ and ΔK280 tauRD aggregates
From the text: To investigate Aβ and ΔK280 tauRD aggregates, samples of the fibrils formed with and without treatment of a tested compound were placed on a 200-mesh copper (holey-carbon) grid and visualized using a JEM-1230 transmission electron microscope (TEM) (JEOL, Tokyo, Japan) at an accelerating voltage of 100 kV.

CRE-GFP 293 cells = experiment: CRE-GFP 293 reporter cell assay (flow cytometry); format: cell-based, Human; conditions: 5–10 μM, 5 h, in the presence or absence of Ca2+ ionophore (2 μM)
caspase 1 = experiment: Caspase 1 activity in ΔK280 tauRD-DsRed cells; format: cell-based, Human; conditions: 10 μM, ∆K280 tauRD-DsRed cells
Description: Aβ-GFP or ∆K280 tauRD-DsRed SH-SY5Y cells were seeded into 6-well plates (5 × 10^5/well) and treated with retinoic acid, coumarin-chalcone derivatives, and doxycycline as previously described. On day 8, cells were collected and lysates were prepared with six freeze/thaw cycles. The supernatant was collected by centrifugation, followed by measurement of the caspase 1 activity in 50 μg aliquots of cell extract using the ICE fluorometric assay kit (BioVision, Milpitas, CA, USA). Following incubation of the mixture at 37°C for 2 h, fluorescence was measured with excitation/emission wavelengths at 400/505 nm (FLx800 fluorescence microplate reader). In addition, the collected cells were lysed by sonication. Acetylcholinesterase (AChE) activity in the supernatant was determined in 10 μg aliquots of cell extracts using the AChE activity assay kit (Sigma-Aldrich) according to the manufacture's protocol. Finally, the absorbance at 412 nm was measured using a Multiskan GO spectrophotometer (Thermo Fisher Scientific).

In the case of `CN(C)c1ccc(/C=C/C(=O)c2c(O)c3ccccc3oc2=O)cc1` [LM-021, (E)-3-(3-(4-(dimethylamino)phenyl)acryloyl)-4-hydroxy-2H-chromen-2-one], the “Aβ and tau aggregate structures by TEM” value [1] is reported as “reduced amyloid aggregates”, the “CRE-motif-driven GFP expression” value (CRE-GFP 293 cells) is reported as “significantly activated” and the “Caspase 1 activity” value (caspase 1) is reported as “lowered caspase 1 activity”.
